Reference: patent US10881677B2, “Composition for modulating IRAK1” (Agency for Science, Technology and Research, priority 2015, dated 2021)
“Also recorded” adds a separate entry of the source.

Columns and labels:
Format in all cases: cell-based
p-IRAK1 (T209) = target: T1, p-IRAK1 (T209) (Homo sapiens, UniProt P51617); assay: Western blot of p-IRAK1 in immunoprecipitated IRAK1; settings: for induction of p-IRAK1 by chemotherapeutic agent: MDA231 (also SUM159) cells, PTX 5 nM, ADR 2 μM, Cisplatin 5 μM, up to 48 hours
T1 construct: The whole cell lysate were extracted with the NE-PER kit (Pierce Biotechnology) and subjected to immunoprecipitation using 2 μg total-IRAK1 antibody; endogenous in cells; host or cells: TNBC cell lines (BT549, MB436, MB468, MDA231, MDA231-LM2, SUM159 and paclitaxel-resistant sublines)
T1 sequence (P51617 whole entry): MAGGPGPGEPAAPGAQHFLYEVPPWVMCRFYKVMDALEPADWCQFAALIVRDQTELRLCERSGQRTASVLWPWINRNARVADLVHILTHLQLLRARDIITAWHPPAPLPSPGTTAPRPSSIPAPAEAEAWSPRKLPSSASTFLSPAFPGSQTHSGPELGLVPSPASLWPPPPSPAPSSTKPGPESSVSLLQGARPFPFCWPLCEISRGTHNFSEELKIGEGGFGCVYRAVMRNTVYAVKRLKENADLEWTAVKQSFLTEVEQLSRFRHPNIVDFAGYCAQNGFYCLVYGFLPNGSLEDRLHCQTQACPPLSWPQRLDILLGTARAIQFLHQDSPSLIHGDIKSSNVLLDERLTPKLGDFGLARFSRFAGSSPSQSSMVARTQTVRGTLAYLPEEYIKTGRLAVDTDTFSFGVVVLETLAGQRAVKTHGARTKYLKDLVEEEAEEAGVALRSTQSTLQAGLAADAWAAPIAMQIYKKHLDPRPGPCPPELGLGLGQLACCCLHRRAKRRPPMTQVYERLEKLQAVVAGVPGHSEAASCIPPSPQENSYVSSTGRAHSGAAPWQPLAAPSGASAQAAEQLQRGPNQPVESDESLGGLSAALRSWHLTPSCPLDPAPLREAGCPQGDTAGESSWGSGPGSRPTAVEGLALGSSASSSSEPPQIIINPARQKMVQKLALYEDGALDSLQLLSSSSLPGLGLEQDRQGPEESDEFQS
Description: Western Blotting was performed as described previously (8). IRAK1 (Cat no: #4359), IRAK4 (Cat no.: 4363), cleaved PARP (Cat no.: #9541), p38 MAPK (Cat no.: #9212), phospho-p38 MAPK (T180/Y182) (Cat no.: #9211), phospho-NF-KappaB p65 (S536) (Cat no. #3031) were purchased from Cell Signaling (Danvers, Mass.). Phospho-IRAK1 (T209) antibody was purchased from Assay Biotech (Sunnyvale, Calif., Cat no.: A1074) and phospho-IRAK1 (S376) antibody from Genetex (Irvine, Calif., Cat no.: GTX50994). MCL-1 antibody was purchased from Santa Cruz Biotechnology (Santa Cruz, Calif., Cat no.: sc-819). Actin was purchased from Sigma-Aldrich (St Louis, Mo., Cat no.: A5441). Detection of bands was performed with the ChemiDoc™ MP Imaging Systems (Bio-Rad, Hercules, Calif.) and bands were subjected to further densitometric analysis with Image Lab software (Version 4.1, Bio-rad, Hercules, Calif.).
Co-IP was performed as described previously (9). The whole cell lysate were extracted with the NE-PER kit (Pierce Biotechnology) and subjected to immunoprecipitation using 2 μg total-IRAK1 antibody (Santa Cruz Biotech, Santa Cruz, Calif., Cat no.: sc-7883). The precipitated protein complex was captured using protein A-Agarose beads (Roche) and extensively washed with the washing buffer (50 mM Tris-HCl, 150 mM NaCl, 0.1% triton). The precipitated proteins were dissolved in SDS sample buffer along with 3 mM DTT, and subjected to immunoblotting analysis. Phospho-IRAK1 (T209) (Assay Biotechnology, Sunnyvale, Calif., Cat no.: A1074) was used for detection.

MDA231-PR cells = assay: Cell viability IC50 curves, sensitivity of paclitaxel-resistant cells to agents
From the text: FIG. 17. (a). IC50 curves showing cell viability after treatment with paclitaxel (PTX), vincristine (VCR), gemcitabine, doxorubicin (ADR), cisplatin, 5-fluorouracil (5-FU) and pacritinib in parental and pacitaxel-treated MDA-MB-231 (MDA231-PR) cells. (b). Graphical representation of relative sensitivities. (c).
(§1) For cell proliferation assay, the optimal cell seeding was first determined empirically for all cell lines by examining the growth of a wide range of seeding densities in a 96-well format to identify conditions that permitted proliferation for 7 days. Cells were then plated at the optimal seeding density 24 h before siRNA or drug treatment in triplicate. Plates were incubated for 7 days at 37° C. in 5% CO2. Cells were then lysed with CellTiter-Glo (CTG) (Promega, Madison, Wis.) and chemiluminescent signal was detected with a microplate reader on Day 0, 1, 3, 5 and 7. In addition, an untreated plate of cells was harvested at the time of drug or siRNA addition (T0) to quantify the starting number of cells. CTG values obtained after the 7 day treatment were expressed as percentages of the T0 value and plotted against time of treatment.

[1] = system: IL1B, IL6 and IL8 mRNAs in MDA231 cells; assay: qRT-PCR of cytokine mRNAs after chemotherapy; settings: 5 nM PTX, VCR 3 days
Description: Total RNA was isolated by using Qiazol (Life technologies, Carlsbad, Calif.) and purified with the RNeasy Mini Kit (Qiagen, Valencia, Calif.). Reverse transcription and quantitative PCR assays were performed using High Capacity cDNA Archive kit and KAPA SyBr Fast qPCR kit (KAPA Biosystems, Wilmington, Mass.). For quantification of mRNA levels, 18S level was used as an internal control. All reactions were analyzed in an Applied Biosystems PRISM 7500 Fast Real-Time PCR system in 96-well plate format.

SUM159PR or MDA231PR = assay: Acquired Paclitaxel resistance of stepwise-selected resistant sublines; settings: SUM159PR kept in 1 μM, MDA231PR in 75 nM Paclitaxel
Description: (§2) To establish the Paclitaxel acquired resistant TNBC cell lines, both SUM159PT and MDA231 cells were used. […] During these treatment cycles, only cells with a high intrinsic resistance or those which had acquired resistance to the drug survived. The cycle was further repeated until the stable resistant cell line (SUM159PR or MDA231PR) SUM159PR cells were stably maintained in 1 μM Paclitaxel and MDA231 in 75 nM of Paclitaxel with complete medium, making them at least ˜1000-fold more resistant than their parental cell lines.

[2] = system: BT549, MB436, MB468, MDA231 and MDA231-LM2 cells; assay: Mammosphere formation assay; settings: MDA231 cells, 10 nM Paclitaxel 4 days, remaining viable cells
Description: Active growing cells were treated with 0.05% trypsin for 10 minutes then passed through […] cell strainer to achieve single cell suspension. Cells were plated (MDA231: 1×10^4; MB436: 3×10^4; MB468: 4×10^4 cells/well, BT549: 3×10^4, MDA231-LM2: 3×10^4) seeded in 6-well ultra-low attachment plates (Corning, Corning, N.Y., cat: CLS3471) in Mammocult medium (Stem cell Technologies, Vancouver, BC, Canada), supplemented with fresh hydrocortisone (0.51 μg/ml) and heparin (1:500). Tumorspheres were cultured for 7 days prior to being counted and photographed. Imaging and quantification were done using GelCount™ apparatus and associated software (Oxford Optronix, Abingdon, UK). For serial passages of tumorsphere formation assay, the spheres were collected by gentle centrifugation, dissociated to single cells for passaging tumorspheres every 14 days and counted. Tumorspheres were photographed and quantified 7-12 days later using a GelCount Colony Counter after staining with INT.

[3] = system: ALDH-positive cell population; assay: ALDEFLUOR assay; settings: after paclitaxel treatment
Description: ALLEFLUOR assay was performed using the manufacturer's recommended protocol (ALDEFLUOR kit, Stemcell Technologies; catalogue number: #01700). In brief, one million single-cell suspensions were centrifuged and resuspended in ALDEFLUOR assay buffer supplied in the kit. Each sample cells were incubated with or without an ALDH-specific inhibitor 15 mM diethylaminobenzaldehyde in the presence of 0.15 mM ALDH substrate. ALDEFLUOR stainings were detected using fluorescein isothiocyanate channel of a FACSCalibur Flow Cytometry System (BD Biosciences) after 25 min incubation at 37° C. Diethylaminobenzaldehyde inhibitor control sample was used as sorting gate reflecting background fluorescence levels for each cell lines.

SUM159PT = assay: Paclitaxel EC50 in parental SUM159PT cells; settings: Homo sapiens, SUM-159-PT, read-out: intrinsic EC50 to Paclitaxel
Description: as §2, §1

induction of p-IRAK1 by chemotherapeutic agent (p-IRAK1 (T209)): marked induction | induction of p-IRAK1 by chemotherapeutic agent (p-IRAK1 (T209); listed as paclitaxel): marked induction | IRAK1 signaling activated by chemotherapeutic agents (p-IRAK1 (T209); discussion statement): activated
SMILES: CC(=O)O[C@H]1C(=O)[C@@]2(C)[C@H]([C@H](OC(=O)c3ccccc3)[C@]3(O)C[C@H](OC(=O)[C@H](O)[C@@H](NC(=O)c4ccccc4)c4ccccc4)C(C)=C1C3(C)C)[C@]1(OC(C)=O)CO[C@@H]1C[C@@H]2O [Paclitaxel]
shift of the IC50 curve (MDA231-PR cells; MDA231-PR versus parental MDA-MB-231): marked right shift | sensitivity of paclitaxel-resistant cells to agent (MDA231-PR cells; paclitaxel-treated/resistant cells over-expressing p-IRAK1): markedly resistant; also recorded: no longer susceptible; also recorded: no longer responsive | expression of IL1B, IL6 and IL8 mRNAs [1]: induced | fold more resistant than parental cell lines (SUM159PR or MDA231PR): ≥ 1000 fold | mammosphere forming capacity after Paclitaxel pretreatment [2]: increased mammosphere forming capacity | mammosphere forming capacity after Paclitaxel pretreatment ([2]; listed as paclitaxel): potentiated mammosphere formation | ALDH-positive cell population [3]: expansion of the ALDH-positive cell population | EC50 (SUM159PT): 3.88 nM
